Reference: patent US4594340A, “25,26-dehydro-1α,24R-dihydroxycholecalciferol and 25,26-dehydro-1α,24S-dihydroxycholecalciferol and the epimeric mixture” (Hoffmann-La Roche Inc., priority 1984, dated 1986)
Like-named read-outs stand apart in the source and are kept apart here.

Experiments:
HL-60 cells [1] = test: Anti-proliferative effect on HL-60 cells (Coulter Counter enumeration); format: cell-based, human (patient); settings: for inhibition at 0.015 µM / inhibition at 0.045 µM / inhibition at 0.09 µM: Homo sapiens, read-out: percent reduction of cell numbers relative to control
Method: (§1) Cultures of HL-60 cells were established in the absence (control) or presence of various concentrations of the test compound. After a 4-day incubation period, the cultures were evaluated for proliferation of tumor cells, tumor cell viability, and cellular differentiation. Proliferation was assessed by directly enumerating the increased number of tumor cells resulting from incubation. Viability was determined by dye exclusion technique to learn whether any of the compounds were lethal to cultured HL-60 cells. Cellular differentiation was evaluated by determining the number of cells which had acquired the enzymes necessary to support a respiratory burst and the functional ability to phagocytose (bind/internalize) particulate material from their environment; both activities being characteristic of mature macrophages and granulocytes,
Tissure culture medium used in these experiments was RPM1-1640 supplemented prior to use to 10% v/v with fetal bovine serum (heat inactivated at 56° for 30 minutes), to 130 units per ml with penicillin and 130 μg per ml with streptomycin, and to an additional 1.6 millimolar with L-glutamine.
(§2) Experimental compounds were dissolved in sufficient ethanol to yield stock solutions of 1×10^-2 molar. Reduced lighting was employed when working with compounds and stock solutions were stored in the dark at -20° in an argon atmosphere. Compounds were diluted with tissue culture medium and added to flasks containing HL-60 cells to achieve the final concentrations described in each experiment.
(§3) The promyelocytic (HL-60) tumor cell line was derived from a patient with acute promyelocytic leukemia. HL-60 cells were maintained in liquid culture by serial weekly passage in tissue culture medium. In any experiment, three replicate flasks were incubated without compound (control) or in the presence of varying concentrations of compound. […]
Quantitation of proliferation was done by enumerating the number of HL-60 cells in each individual flasks (3 flasks per experimental point) using a model ZBI Coulter Counter. Results are shown as the number of cells per ml of tissue culture medium expressed as the mean±standard deviation and as percent reduction of cell number calculated according to the formula: [formula] Experimental cultures with the same or slightly greater cell numbers than control cultures are reported as zero percent reduction.

HL-60 cells [2] = test: Differentiation of HL-60 cells by nitroblue tetrazolium (NBT) reduction; format: cell-based, human (patient)
Method: as §1, with “After a 4-day incubation period, the cultures were evaluated for proliferation of tumor cells, tumor cell viability, and cellular differentiation.” left out
as §2, §3
Quantitation of differentiated cells was done by the biochemical method of nitroblue tetrazolium (NBT) reduction. Sufficient cells were pooled from replicate cultures, centrifuged at 220×g, washed once with serum-free tissue culture medium, and resuspended to 1×10^6 cells per ml in Ca^++ --Mg^++ -deficient phosphate buffered saline (prepared by supplementing Ca^++ --Mg^++ -free phosphate buffered saline (PBS) to 10% v/v with heat-inactivated fetal bovine serum). Nitroblue tetrazolium was dissolved at 1 mg per ml in Ca^++ --Mg^++ -deficient PBS with gentle heating and mixing. Tetradecanoyl phorbol acetate (TPA) was dissolved at 1 mg per ml in ethanol and stored at -20° C. Just prior to use, a working solution of TPA was prepared by diluting the stock concentration 100-fold with Ca^++ --Mg^++ -deficient PBS. The test was done in 12×75 mm tubes by adding 0.5 ml Ca^++ --Mg^++ -deficient PBS, 1.0 ml of HL-60 cells, 0.5 ml of NBT solution, and 0.02 ml of the working TPA solution. After mixing, the tubes were incubated in a 37° water bath for 25 minutes then transferred to ice. Undifferentiated and differentiated cells present in any sample were determined microscopically by surveying 200-400 cells per sample or by cytofluorograph by surveying greater than 30,000 cells. Cells without pigmented granules (clear cells) were judged to be undifferentiated while those containing greater than 3 blue-black formazan granules were scored as differentiated. […] Results are expressed as the percentage of differentiated cells present in any sample as calculated according to the formula: [formula]

C=C(C)[C@H](O)CC[C@@H](C)[C@H]1CC[C@H]2/C(=C/C=C3/C[C@@H](O)C[C@H](O)C3=C)CCC[C@]12C [25,26-dehydro-1α,24R-dihydroxycholecalciferol]
inhibition of proliferation of HL-60 cells (HL-60 cells [1]): inhibited by 25,26-dehydro-1α,24R-dihydroxycholecalciferol in a dose-dependent fashion | HL-60 Cells per ml (HL-60 cells [1]; 15 × 10^-9 molar (first line of that concentration), day 3): 12.0 ± 0.2 cells per ml (× 10^-4) | HL-60 Cells per ml (HL-60 cells [1]; 15 × 10^-9 molar (first line of that concentration), day 4): 24.1 ± 1.0 cells per ml (× 10^-4) | HL-60 Cells per ml (HL-60 cells [1]; 15 × 10^-9 molar (first line of that concentration), day 6): 113.0 ± 1.4 cells per ml (× 10^-4) | HL-60 Cells per ml (HL-60 cells [1]; 15 × 10^-9 molar (second line), day 3): 12.0 ± 0.5 cells per ml (× 10^-4) | HL-60 Cells per ml (HL-60 cells [1]; 15 × 10^-9 molar (second line), day 4): 22.0 ± 0.4 cells per ml (× 10^-4) | HL-60 Cells per ml (HL-60 cells [1]; 15 × 10^-9 molar (second line), day 6): 71.4 ± 1.3 cells per ml (× 10^-4) | HL-60 Cells per ml (HL-60 cells [1]; 45 × 10^-9 molar, day 3): 12.3 ± 0.2 cells per ml (× 10^-4) | HL-60 Cells per ml (HL-60 cells [1]; 45 × 10^-9 molar, day 4): 19.0 ± 0.8 cells per ml (× 10^-4) | HL-60 Cells per ml (HL-60 cells [1]; 45 × 10^-9 molar, day 6): 31.4 ± 0.5 cells per ml (× 10^-4) | HL-60 Cells per ml (HL-60 cells [1]; 90 × 10^-9 molar, day 3): 11.8 ± 0.1 cells per ml (× 10^-4) | HL-60 Cells per ml (HL-60 cells [1]; 90 × 10^-9 molar, day 4): 15.4 ± 0.9 cells per ml (× 10^-4) | HL-60 Cells per ml (HL-60 cells [1]; 90 × 10^-9 molar, day 6): 21.4 ± 1.1 cells per ml (× 10^-4) | inhibition at 0.015 µM (HL-60 cells [1]; HL-60, 72 h, 15 × 10^-9 molar (first line of that concentration), day 3): 0% | inhibition at 0.015 µM (HL-60 cells [1]; HL-60, 72 h, 15 × 10^-9 molar (second line), day 3): 0% | inhibition at 0.045 µM (HL-60 cells [1]; HL-60, 72 h, 45 × 10^-9 molar, day 3): 0% | inhibition at 0.09 µM (HL-60 cells [1]; HL-60, 72 h, 90 × 10^-9 molar, day 3): 0% | inhibition at 0.015 µM (HL-60 cells [1]; HL-60, 96 h, 15 × 10^-9 molar (first line of that concentration), day 4): 9% | inhibition at 0.015 µM (HL-60 cells [1]; HL-60, 96 h, 15 × 10^-9 molar (second line), day 4): 17% | inhibition at 0.045 µM (HL-60 cells [1]; HL-60, 96 h, 45 × 10^-9 molar, day 4): 28% | inhibition at 0.09 µM (HL-60 cells [1]; HL-60, 96 h, 90 × 10^-9 molar, day 4): 42% | inhibition at 0.015 µM (HL-60 cells [1]; HL-60, 144 h, 15 × 10^-9 molar (first line of that concentration), day 6): 11% | inhibition at 0.015 µM (HL-60 cells [1]; HL-60, 144 h, 15 × 10^-9 molar (second line), day 6): 44% | inhibition at 0.045 µM (HL-60 cells [1]; HL-60, 144 h, 45 × 10^-9 molar, day 6): 75% | inhibition at 0.09 µM (HL-60 cells [1]; HL-60, 144 h, 90 × 10^-9 molar, day 6): 83% | inhibition of proliferation detectable by cell enumeration as early as (HL-60 cells [1]; day of incubation): 4 days | induction of cellular differentiation (NBT reduction) (HL-60 cells [2]; 5, 15, 45 or 90×10^-9 molar, all incubation times): increasing proportions of differentiated cells at all incubation times | % diff. (NBT reduction) (HL-60 cells [2]; 5 × 10^-9 molar, day 3): 5% | diff. cells / total (NBT reduction) (HL-60 cells [2]; 5 × 10^-9 molar, day 3): 2443/44545 | % diff. (NBT reduction) (HL-60 cells [2]; 5 × 10^-9 molar, day 4): 8% | diff. cells / total (NBT reduction) (HL-60 cells [2]; 5 × 10^-9 molar, day 4): 3401/42923 | % diff. (NBT reduction) (HL-60 cells [2]; 5 × 10^-9 molar, day 6): 7% | diff. cells / total (NBT reduction) (HL-60 cells [2]; 5 × 10^-9 molar, day 6): 3179/47638 | % diff. (NBT reduction) (HL-60 cells [2]; 15 × 10^-9 molar, day 3): 22% | diff. cells / total (NBT reduction) (HL-60 cells [2]; 15 × 10^-9 molar, day 3): 8971/40398 | % diff. (NBT reduction) (HL-60 cells [2]; 15 × 10^-9 molar, day 4): 23% | diff. cells / total (NBT reduction) (HL-60 cells [2]; 15 × 10^-9 molar, day 4): 9489/40666 | % diff. (NBT reduction) (HL-60 cells [2]; 15 × 10^-9 molar, day 6): 17% | diff. cells / total (NBT reduction) (HL-60 cells [2]; 15 × 10^-9 molar, day 6): 8167/47032 | % diff. (NBT reduction) (HL-60 cells [2]; 45 × 10^-9 molar, day 3): 49%
